The target in test [1] is T1, recombinant human Lp-PLA2 (Homo sapiens, UniProt Q13093).
T1 sequence (Q13093 22-441): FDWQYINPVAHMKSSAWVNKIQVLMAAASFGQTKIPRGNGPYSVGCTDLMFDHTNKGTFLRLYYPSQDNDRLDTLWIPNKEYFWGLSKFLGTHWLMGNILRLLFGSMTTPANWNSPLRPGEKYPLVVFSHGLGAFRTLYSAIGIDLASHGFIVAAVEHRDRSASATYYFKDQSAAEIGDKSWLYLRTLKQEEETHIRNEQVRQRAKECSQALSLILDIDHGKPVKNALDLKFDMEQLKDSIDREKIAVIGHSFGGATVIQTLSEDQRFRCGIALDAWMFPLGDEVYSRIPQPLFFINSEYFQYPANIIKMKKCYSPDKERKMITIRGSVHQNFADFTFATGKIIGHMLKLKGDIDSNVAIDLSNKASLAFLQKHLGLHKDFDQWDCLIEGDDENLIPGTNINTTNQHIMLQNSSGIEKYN
Description: Recombinant human Lp-PLA2 assay (rhLp-PLA2, PED6 assay). As to conditions: upper limit for pIC50 in this assay is 9.3. In kind it is biochemical. An excerpt: (1) Recombinant Human Lp-PLA2 Assay (rhLp-PLA2) (Also Referred to as “PED6” Assay)
N-((6-(2,4-dinitrophenyl)amino)-hexanoyl)-2-(4,4-difluoro-5,7-dimethyl-4-bora-3a,4a-diaza-s-indacene-3-pentanoyl)-1-hexadecanoyl-sn-glycero-3-phosphoethanolamine, triethylammonium salt (PED6) is a commercially available fluorescently-labeled phospholipid, which is commercially available from Invitrogene and Molecular Probes. There is a quenching […] and a Bodipy fluorescein (FL) group in the sn2 position. Upon cleavage with Lp-PLA2, the Bodipy FL group is liberated and then may result in an increase in fluorescence. Inhibitors of Lp-PLA2 therefore prevent this cleavage and no fluorescent increase is observed.
The PED6 assay was run as an unquenched 10 μL assay. The source plate containing the compounds to be tested was prepared by making 1:3 (by volume) serial dilution of the compounds within DMSO on 384-well microplate. Then, 0.01 μL of the compounds on compound source plate were transferred into 384 well Greiner 784076 (black) plates using ECHO liquid dispenser. 5 μL of recombinant human Lp-PLA2 enzyme (4 nM (or 110 pM) rhLp-PLA2 in assay buffer of 50 mM HEPES, pH 7.4, 150 mM NaCl, 1 mM CHAPS) was added to each well of the plate. Plates were centrifuged for 10 sec at 500 rpm. After 30 minutes preincubation, 5 μL of substrate ([…] (or 5 μM) PED6 [from 5 mM DMSO stock] in assay buffer of 50 mM HEPES, pH 7.4, 150 mM NaCl, 1 mM CHAPS) was added to 384 well Greiner 784076 (black) plates. Plates were centrifuged for 10 sec at 500 rpm. The plate was covered to protect it from light and incubated for 20 min at room temperature. The plates were read for fluorescence intensity at ex: 480/em: 540 using ViewLux microplate imager for Envision spectrofluoroimeters pIC50 data, curve and QC analysis was conducted by using XL fit module in Excel.
The compounds described below were tested generally according to the PED6 assay described above.

In another test the target is T2, Lp-PLA2 in human plasma (Homo sapiens, UniProt Q13093).
T2 construct: from tissue; host or cells: pooled human plasma
T2 sequence (Q13093 22-441): T1 sequence (Q13093 22-441)
Description: Lp-PLA2 human plasma assay (Thio-PAF assay). In kind it is biochemical. To be noted: pooled human plasma; read-out: pIC50 values in the thio-PAF assay (converted). An excerpt: The human plasma assay utilizes a thioester analog of PAF (phosphatidylcholine), where hydrolysis yields to the formation of a phospholipid containing a free thiol group. The amount of thiol is quantitated continuously by reacting with CPM (7-diethylamino-3-(4′-maleimidylphenyl)-4-methylcoumarin), a maleimide which increases in fluoresence after Michael addition of thiols. This assay may detect the activity of Lp-PLA2 in human plasma, as determined by specific inhibition by Lp-PLA2 inhibitors.
The thio-PAF assay was run as a quenched 15 μL assay. Compounds source plate was prepared by making 1:3 (by volume) serial dilution of the compounds into pure DMSO on 384-well microplate. 0.01 μL of compounds on compound source plate were transferred to 384 well Greiner 784076 (black) low-volume plates by ECHO liquid dispenser. 8 μL pooled human plasma, which was previously aliquoted and frozen, was added. Plates were centrifuged for 10 sec at 500 rpm. After 30 minutes preincubation, 2 μL of substrate solution comprising 2.5 mM 2-thio-PAF [from ethanol stock], […] CPM [from a DMSO stock] and 3.2 mM NEM (N-ethylmaleimide) [made fresh daily in DMSO] in assay buffer of 50 mM HEPES, pH 7.4, 150 mM NaCl, 1 mM CHAPS was added to 384 well Greiner 784076 (black) low-volume plates by BRAVO liquid handling station. After 2 mins, reaction was quenched with 5 μL of 5% aqueous trifluoroacetic acid (TFA). Plates were covered to protect from light and incubated for 40 min at room temperature. Plates were read at ex: 380/em: 485 using—Envision microplate reader. pIC50 data, curve and QC analysis was conducted by using XLFit module in Excel.

Setting [2] is: read-out: pIC50 values in the PED6 assay (converted).
Where [3] appears, read: Table 1, read-out: rhLp-PLA2 (PED6 assay) (pIC50) (converted).

Structures can show the parent of a compound that is named as a salt. Where two headings read alike, the source gives them in different places.

Turning to `CN1CCCn2c1cc(OCc1ccc(F)c(F)c1)nc2=O` [Example 10, 8-((3,4-difluorobenzyl)oxy)-1-methyl-3,4-dihydro-1H-pyrimido[1,6-a]pyrimidin-6(2H)-one, trifluoroacetic acid salt], the figures for the IC50 (in test [1] (setting [2]); at Lp-PLA2 in human plasma) were at most 0.01 µM and at most 0.1 µM, respectively.

For `CN1CCCn2c1cc(OCc1ccc(Oc3ccc(F)c(C(F)(F)F)c3)c(F)c1)nc2=O` [Example 13, 8-((3-fluoro-4-(4-fluoro-3-(trifluoromethyl)phenoxy)benzyl)oxy)-1-methyl-3,4-dihydro-1H-pyrimido[1,6-a]pyrimidin-6(2H)-one], the results for the IC50 (in test [1] (setting [2]); on Lp-PLA2 in human plasma) were at most 0.01 µM and at most 0.1 µM, respectively.

In the case of `CN1CCCn2c1cc(OCc1ccc(Oc3ccc(F)c(Cl)c3)c(F)c1)nc2=O` [Example 15, 8-((4-(3-chloro-4-fluorophenoxy)-3-fluorobenzyl)oxy)-1-methyl-3,4-dihydro-1H-pyrimido[1,6-a]pyrimidin-6(2H)-one], the IC50 in test [1] (setting [2]) is at most 0.01 µM; at Lp-PLA2 in human plasma, at most 0.1 µM.

As for `CN1CCCn2c1cc(OCc1ccc(Oc3cccc(Cl)c3)c(F)c1)nc2=O` [Example 16, 8-((4-(3-chlorophenoxy)-3-fluorobenzyl)oxy)-1-methyl-3,4-dihydro-1H-pyrimido[1,6-a]pyrimidin-6(2H)-one], the IC50 in test [1] (setting [2]) was at most 0.01 µM; on Lp-PLA2 in human plasma, at most 0.1 µM.

For `CN1CCCn2c1cc(OCc1ccc(Oc3ccc(F)c(Cl)c3)cc1)nc2=O` [Example 17, 8-((4-(3-chloro-4-fluorophenoxy)benzyl)oxy)-1-methyl-3,4-dihydro-1H-pyrimido[1,6-a]pyrimidin-6(2H)-one], the IC50 was at most 0.01 µM in test [1] (setting [2]) and at most 1 µM on Lp-PLA2 in human plasma.

Regarding `CN1CCCn2c1cc(OCc1cc(F)c(F)c(F)c1)nc2=O` [Example 21, 1-methyl-8-((3,4,5-trifluorobenzyl)oxy)-3,4-dihydro-1H-pyrimido[1,6-a]pyrimidin-6(2H)-one], the IC50 is 0.002 µM in test [1] (setting [3]), at most 0.01 µM in test [1] (setting [2]) and at most 0.1 µM at Lp-PLA2 in human plasma.

Regarding `CN1CCCn2c1cc(OCc1ccc(Oc3cccc(F)c3)c(F)c1)nc2=O` [Example 25, 8-((3-fluoro-4-(3-fluorophenoxy)benzyl)oxy)-1-methyl-3,4-dihydro-1H-pyrimido[1,6-a]pyrimidin-6(2H)-one], the IC50 in test [1] (setting [2]) was at most 0.01 µM; at Lp-PLA2 in human plasma, at most 1 µM.

As for `CN1CCCn2c1cc(OCc1ccc(Oc3cccc(C(F)(F)F)c3)c(F)c1)nc2=O` [Example 28, 8-((3-fluoro-4-(3-(trifluoromethyl)phenoxy)benzyl)oxy)-1-methyl-3,4-dihydro-1H-pyrimido[1,6-a]pyrimidin-6(2H)-one], the IC50 was 0.00251 µM in test [1] (setting [3]), at most 0.01 µM in test [1] (setting [2]) and at most 0.1 µM at Lp-PLA2 in human plasma.

With `CN1CCCn2c1cc(OCc1ccc(Oc3ccc(C(F)(F)F)cc3)c(C#N)c1)nc2=O` [Example 29, 5-(((1-methyl-6-oxo-2,3,4,6-tetrahydro-1H-pyrimido[1,6-a]pyrimidin-8-yl)oxy)methyl)-2-(4-(trifluoromethyl)phenoxy)benzonitrile], the IC50 in test [1] (setting [2]) is at most 0.01 µM; at Lp-PLA2 in human plasma it was at most 0.1 µM.

Consider `CN1CCCn2c1cc(OCc1ccc(Oc3ccc(F)cc3)c(C#N)c1)nc2=O` [Example 30, 2-(4-fluorophenoxy)-5-(((1-methyl-6-oxo-2,3,4,6-tetrahydro-1H-pyrimido[1,6-a]pyrimidin-8-yl)oxy)methyl)benzonitrile], for which the values for the IC50 (in test [1] (setting [2]); at Lp-PLA2 in human plasma) were at most 0.01 µM and at most 0.1 µM, respectively.

With `CN1CCCn2c1cc(OCc1ccc(Oc3cccc(C(F)(F)F)n3)c(F)c1)nc2=O` [Example 32, 8-((3-fluoro-4-((6-(trifluoromethyl)pyridin-2-yl)oxy)benzyl)oxy)-1-methyl-3,4-dihydro-1H-pyrimido[1,6-a]pyrimidin-6(2H)-one], the IC50 was at most 0.01 µM in test [1] (setting [2]) and at most 1 µM at Lp-PLA2 in human plasma.

In the case of `CN1CCCn2c1cc(OCc1ccc(Oc3ccc(F)c(F)c3)c(C#N)c1)nc2=O` [Example 34, 2-(3,4-difluorophenoxy)-5-(((1-methyl-6-oxo-2,3,4,6-tetrahydro-1H-pyrimido[1,6-a]pyrimidin-8-yl)oxy)methyl)benzonitrile], the IC50 is at most 0.01 µM in test [1] (setting [2]) and at most 0.1 µM on Lp-PLA2 in human plasma.

For `CC(C)N1CCCn2c1cc(OCc1ccc(Oc3ccc(C(F)(F)F)nc3)c(F)c1)nc2=O` [Example 38, 8-((3-fluoro-4-((6-(trifluoromethyl)pyridin-3-yl)oxy)benzyl)oxy)-1-isopropyl-3,4-dihydro-1H-pyrimido[1,6-a]pyrimidin-6(2H)-one], the results for the IC50 (in test [1] (setting [2]); on Lp-PLA2 in human plasma) were at most 0.01 µM and at most 0.1 µM, respectively.

For the molecule `CC(C)N1CCCn2c1cc(OCc1ccc(F)c(F)c1)nc2=O` [Example 40, 8-((3,4-difluorobenzyl)oxy)-1-isopropyl-3,4-dihydro-1H-pyrimido[1,6-a]pyrimidin-6(2H)-one], the figures for the IC50 (in test [1] (setting [3]); in test [1] (setting [2]); on Lp-PLA2 in human plasma) were 0.01 µM, at most 0.01 µM and at most 0.1 µM, respectively.

With `CC(C)N1CCCn2c1cc(OCc1cc(F)c(F)c(F)c1)nc2=O` [Example 42, isopropyl-8-((3,4,5-trifluorobenzyl)oxy)-3,4-dihydro-1H-pyrimido[1,6-a]pyrimidin-6(2H)-one], the results for the IC50 (in test [1] (setting [3]); in test [1] (setting [2]); on Lp-PLA2 in human plasma) were 0.00501 µM, at most 0.01 µM and at most 0.1 µM, respectively.

With `N#Cc1cc(COc2cc3n(c(=O)n2)CCCN3)ccc1Oc1cccc(C(F)(F)F)c1` [Example 53, 5-(((6-oxo-2,3,4,6-tetrahydro-1H-pyrimido[1,6-a]pyrimidin-8-yl)oxy)methyl)-2-(3-(trifluoromethyl)phenoxy)benzonitrile], the IC50 in test [1] (setting [3]) was 0.001 µM; in test [1] (setting [2]), at most 0.001 µM; on Lp-PLA2 in human plasma it was at most 0.1 µM.

In the case of `CN1CCCn2c1cc(OCCc1ccc(Oc3ccc(C(F)(F)F)c(Cl)c3)cn1)nc2=O` [Example 54, 8-(2-(5-(3-chloro-4-(trifluoromethyl)phenoxy)pyridin-2-yl)ethoxy)-1-methyl-3,4-dihydro-1H-pyrimido[1,6-a]pyrimidin-6(2H)-one], the IC50 in test [1] (setting [2]) was at most 0.01 µM; at Lp-PLA2 in human plasma it was at most 1 µM.

As for `CN1CCCn2c1cc(OCCc1ccc(Oc3ccc(Cl)c(C(F)(F)F)c3)cc1)nc2=O` [Example 55, 8-(4-(4-chloro-3-(trifluoromethyl)phenoxy)phenethoxy)-1-methyl-3,4-dihydro-1H-pyrimido[1,6-a]pyrimidin-6(2H)-one], the IC50 in test [1] (setting [2]) was at most 0.001 µM; on Lp-PLA2 in human plasma, at most 0.1 µM.

`Cc1ccc(Oc2ccc(COc3cc4n(c(=O)n3)CCCN4C)cc2C#N)cn1` [Example 56, 5-(((1-methyl-6-oxo-2,3,4,6-tetrahydro-1H-pyrimido[1,6-a]pyrimidin-8-yl)oxy)methyl)-2-((6-methylpyridin-3-yl)oxy)benzonitrile]: the IC50 was at most 0.001 µM in test [1] (setting [2]) and at most 0.1 µM at Lp-PLA2 in human plasma.

(Values after patent US20130030012A1, “COMPOUNDS” (Glaxo Group Limited, priority 2011, published 2013).)
